One experiment addresses Pim1 kinase (Homo sapiens, UniProt P11309). The experiment can be described thus: Pim1 ATP depletion assay.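 Note: Luciferase-luciferin luminescence readout of residual ATP after PIM1 transfers phosphate to a peptide substrate, 40 µM ATP added, reaction run to roughly half ATP consumption.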 It is filed as biochemical. The conditions noted are these: Pim1 ATP depletion assay.
For another experiment, the target named is Pim2 kinase (Homo sapiens, UniProt Q9P1W9). The experiment is described as follows: Pim2 ATP depletion assay.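 Note: Luciferase-based luminescent readout of ATP remaining after PIM2 phosphorylates a BAD peptide, final 5 nM enzyme, 4 µM ATP, 10 µM peptide, 2.5% DMSO, run to roughly half ATP consumption.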 It counts as biochemical.
Sequence of Pim2 kinase (Q9P1W9 whole entry): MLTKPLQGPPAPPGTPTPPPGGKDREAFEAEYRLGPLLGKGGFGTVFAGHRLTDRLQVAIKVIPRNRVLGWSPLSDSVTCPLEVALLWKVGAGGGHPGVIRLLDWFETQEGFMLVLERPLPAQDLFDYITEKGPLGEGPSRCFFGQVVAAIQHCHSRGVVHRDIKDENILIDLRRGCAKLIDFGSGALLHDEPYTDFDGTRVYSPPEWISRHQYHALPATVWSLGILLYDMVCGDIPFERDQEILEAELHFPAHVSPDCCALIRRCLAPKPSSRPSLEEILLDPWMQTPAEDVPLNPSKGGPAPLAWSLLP
For another experiment, the target named is Pim3 kinase (Homo sapiens, UniProt Q86V86). The experiment can be described thus: Pim3 ATP depletion assay. It is filed as biochemical.
Experiment [1] deals with T1, human full length PKCE enzyme (Homo sapiens, UniProt Q02156).
T1 construct: human full length PKCE enzyme purchased from InVitrogen; purchased InVitrogen
T1 sequence (Q02156 1-737): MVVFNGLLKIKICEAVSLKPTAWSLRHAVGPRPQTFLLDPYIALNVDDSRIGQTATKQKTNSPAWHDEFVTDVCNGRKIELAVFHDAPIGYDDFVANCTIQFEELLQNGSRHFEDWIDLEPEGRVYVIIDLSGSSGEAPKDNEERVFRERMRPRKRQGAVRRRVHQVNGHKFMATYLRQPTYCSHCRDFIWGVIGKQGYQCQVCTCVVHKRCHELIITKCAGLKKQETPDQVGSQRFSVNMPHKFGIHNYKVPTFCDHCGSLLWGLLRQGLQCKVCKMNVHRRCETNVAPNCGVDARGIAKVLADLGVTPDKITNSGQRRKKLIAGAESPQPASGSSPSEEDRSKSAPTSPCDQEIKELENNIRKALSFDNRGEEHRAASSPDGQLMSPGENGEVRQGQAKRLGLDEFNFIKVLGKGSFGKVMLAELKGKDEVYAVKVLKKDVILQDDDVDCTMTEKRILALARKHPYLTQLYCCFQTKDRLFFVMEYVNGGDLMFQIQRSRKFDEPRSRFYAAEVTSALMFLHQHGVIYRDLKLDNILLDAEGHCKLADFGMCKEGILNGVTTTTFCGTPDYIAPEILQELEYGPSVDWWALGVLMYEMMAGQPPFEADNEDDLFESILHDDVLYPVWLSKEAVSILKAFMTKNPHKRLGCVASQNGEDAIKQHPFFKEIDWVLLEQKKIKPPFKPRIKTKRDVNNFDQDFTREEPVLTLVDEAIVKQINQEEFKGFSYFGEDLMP
The experiment is described as follows: In vitro PKCE assay. It counts as biochemical. The conditions noted are these: 10 nM enzyme, 40 uM peptide substrate, 20 uM ATP, KinaseGlo Plus readout; read-out: PKCε IC50.

The target in the next experiment is KDR kinase (Homo sapiens, UniProt P35968). The experiment is described as follows: KDR AlphaScreen assay. The conditions noted are these: KDR IC50 (μM).
Sequence of KDR kinase (P35968 20-1356): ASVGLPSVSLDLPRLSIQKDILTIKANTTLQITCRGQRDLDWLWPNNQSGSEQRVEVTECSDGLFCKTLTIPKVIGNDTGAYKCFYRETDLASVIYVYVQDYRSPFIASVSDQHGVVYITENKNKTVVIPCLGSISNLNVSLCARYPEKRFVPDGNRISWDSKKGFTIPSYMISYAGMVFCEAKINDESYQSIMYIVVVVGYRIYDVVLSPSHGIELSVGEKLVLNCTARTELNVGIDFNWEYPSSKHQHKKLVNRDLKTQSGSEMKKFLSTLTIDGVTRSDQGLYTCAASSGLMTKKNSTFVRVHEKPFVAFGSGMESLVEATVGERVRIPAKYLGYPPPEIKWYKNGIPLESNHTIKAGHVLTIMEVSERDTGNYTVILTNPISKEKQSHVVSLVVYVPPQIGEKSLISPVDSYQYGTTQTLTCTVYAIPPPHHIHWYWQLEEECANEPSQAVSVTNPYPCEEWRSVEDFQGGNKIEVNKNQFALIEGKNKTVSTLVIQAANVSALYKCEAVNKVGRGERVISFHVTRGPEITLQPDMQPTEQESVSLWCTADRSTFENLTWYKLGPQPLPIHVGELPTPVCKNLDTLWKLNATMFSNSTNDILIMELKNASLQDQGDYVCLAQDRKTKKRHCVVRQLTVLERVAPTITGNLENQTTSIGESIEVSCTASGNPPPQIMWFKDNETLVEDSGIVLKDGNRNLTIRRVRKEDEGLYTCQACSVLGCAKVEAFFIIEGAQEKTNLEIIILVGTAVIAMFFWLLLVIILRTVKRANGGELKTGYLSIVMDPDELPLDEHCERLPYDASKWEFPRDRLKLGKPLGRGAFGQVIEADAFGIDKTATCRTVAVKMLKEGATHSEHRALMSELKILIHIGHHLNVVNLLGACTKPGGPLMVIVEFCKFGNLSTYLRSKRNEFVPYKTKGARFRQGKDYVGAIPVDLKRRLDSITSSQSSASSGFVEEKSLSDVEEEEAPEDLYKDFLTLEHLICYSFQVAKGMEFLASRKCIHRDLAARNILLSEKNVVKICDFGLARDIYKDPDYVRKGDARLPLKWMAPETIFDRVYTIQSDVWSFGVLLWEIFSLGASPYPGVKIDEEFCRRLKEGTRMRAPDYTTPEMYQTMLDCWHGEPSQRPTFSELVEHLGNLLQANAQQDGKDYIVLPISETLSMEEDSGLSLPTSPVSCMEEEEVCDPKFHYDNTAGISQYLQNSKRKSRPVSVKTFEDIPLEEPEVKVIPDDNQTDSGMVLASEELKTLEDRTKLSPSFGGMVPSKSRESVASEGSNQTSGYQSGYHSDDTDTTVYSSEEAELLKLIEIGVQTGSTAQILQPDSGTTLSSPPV

Where two headings read alike, the source gives them in different places. Bounds are passed on as bounds.

Sequence of Pim1 kinase (P11309 whole entry): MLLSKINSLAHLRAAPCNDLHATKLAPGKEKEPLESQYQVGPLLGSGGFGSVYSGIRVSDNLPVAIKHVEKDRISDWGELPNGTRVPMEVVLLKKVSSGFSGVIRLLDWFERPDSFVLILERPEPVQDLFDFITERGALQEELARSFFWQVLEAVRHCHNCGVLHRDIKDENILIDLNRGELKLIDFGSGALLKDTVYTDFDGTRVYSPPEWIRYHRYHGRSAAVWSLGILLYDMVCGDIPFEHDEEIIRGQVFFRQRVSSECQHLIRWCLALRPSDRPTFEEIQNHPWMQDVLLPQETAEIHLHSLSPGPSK

Turning to `Nc1nccnc1C(=O)Nc1cnccc1C1=CCCCC1` [Example 118, 3-amino-N-(4-cyclohex-1-en-1-ylpyridin-3-yl)pyrazine-2-carboxamide], the IC50 on Pim1 kinase (read-out: IC50 (μM) PIM1) was < 1 µM; at Pim2 kinase (read-out: IC50 (μM) PIM2), 1 to 10 µM; at Pim3 kinase (read-out: IC50 (μM) PIM3), < 1 µM; in experiment [1] it was < 1 µM; on KDR kinase, < 1 µM.

As to `Nc1ncc(Br)nc1C(=O)Nc1cnccc1N1CCCCC1` [Example 119, 3-amino-6-bromo-N-(4-piperidin-1-ylpyridin-3-yl)pyrazine-2-carboxamide], the IC50 on Pim1 kinase (read-out: IC50 (μM) PIM1) is < 1 µM; on Pim2 kinase (read-out: IC50 (μM) PIM2), < 1 µM; on Pim3 kinase (read-out: IC50 (μM) PIM3), < 1 µM; in experiment [1] it was < 1 µM; against KDR kinase, 1 to 10 µM.

Turning to `Nc1nc(N)c(C(=O)Nc2cnccc2N2CCCCC2)nc1Cl` [Example 121, 3,5-diamino-6-chloro-N-(4-piperidin-1-ylpyridin-3-yl)-pyrazine-2-carboxamide], the IC50 on Pim1 kinase (read-out: IC50 (μM) PIM1) was < 1 µM; at Pim2 kinase (read-out: IC50 (μM) PIM2) it was < 1 µM; at Pim3 kinase (read-out: IC50 (μM) PIM3), < 1 µM; in experiment [1], > 25 µM; at KDR kinase, < 1 µM.

As for `Nc1nccnc1C(=O)Nc1cnccc1Cl` [Example 125, 3-amino-N-(4-chloropyridin-3-yl)pyrazine-2-carboxamide], the IC50 is 1 to 10 µM at Pim1 kinase (read-out: IC50 (μM) PIM1); > 25 µM on Pim2 kinase (read-out: IC50 (μM) PIM2); 10 to 25 µM on Pim3 kinase (read-out: IC50 (μM) PIM3); 10 to 25 µM in experiment [1]; 1 to 10 µM at KDR kinase.

For the compound `Nc1nccnc1C(=O)Nc1cnccc1N1CCC2(CC1)OCCO2` [Example 127, 3-amino-N-[4-(1,4-dioxa-8-azaspiro[4.5]dec-8-yl)pyridin-3-yl]pyrazine-2-carboxamide], the IC50 at Pim1 kinase (read-out: IC50 (μM) PIM1) was 1 to 10 µM; on Pim2 kinase (read-out: IC50 (μM) PIM2), > 25 µM; on Pim3 kinase (read-out: IC50 (μM) PIM3) it was > 25 µM; in experiment [1] it was 1 to 10 µM; at KDR kinase, > 25 µM.

Regarding `Nc1ncc(Br)nc1C(=O)Nc1[nH]c(=O)ncc1N1CCCCC1` [Example 132, 3-amino-6-bromo-N-(2-oxo-5-piperidin-1-yl-2,3-dihydro-pyrimidin-4-yl)pyrazine-2-carboxamide], the IC50 (on Pim1 kinase (read-out: IC50 (μM) PIM1); on Pim2 kinase (read-out: IC50 (μM) PIM2); on Pim3 kinase (read-out: IC50 (μM) PIM3); in experiment [1]; against KDR kinase) was < 1 µM in each case.

In the case of `NC(=O)c1ccc(N2CCCCC2)c(NC(=O)c2nc(Br)cnc2N)c1` [Example 133, 3-amino-6-bromo-N-(5-carbamoyl-2-piperidin-1-yl-phenyl)pyrazine-2-carboxamide], the IC50 is < 1 µM on Pim1 kinase (read-out: IC50 (μM) PIM1); < 1 µM at Pim2 kinase (read-out: IC50 (μM) PIM2); < 1 µM at Pim3 kinase (read-out: IC50 (μM) PIM3); > 25 µM in experiment [1]; 1 to 10 µM at KDR kinase.

Take `Nc1nc(N)c(C(=O)Nc2[nH]c(=O)ncc2N2CCCC(N)C2)nc1Cl` (stereo not drawn) [Example 134, 3,5-diamino-N-[5-(3-amino-piperidin-1-yl)-2-oxo-2,3-dihydropyrimidin-4-yl]-6-chloropyrazine-2-carboxamide]: the IC50 is < 1 µM at Pim1 kinase (read-out: IC50 (μM) PIM1); < 1 µM on Pim2 kinase (read-out: IC50 (μM) PIM2); < 1 µM at Pim3 kinase (read-out: IC50 (μM) PIM3); 1 to 10 µM in experiment [1]; 1 to 10 µM on KDR kinase.

For the compound `NC(=O)c1cccc(-c2cnc(N)c(C(=O)Nc3ccccc3N3CCCC(N)C3)n2)c1` (stereo not drawn) [Example 373, 3-amino-6-(3-carbamoyl-phenyl)-pyrazine-2-carboxylic acid [2-(3-amino-piperidin-1-yl)-phenyl]-amide], the IC50 (in experiment [1]; on KDR kinase) was < 1 µM in each case.

With `Nc1ncc(-c2ccccc2F)nc1C(=O)Nc1ccccc1N1CCCC(N)C1` (stereo not drawn) [Example 374, 3-amino-6-(2-fluoro-phenyl)-pyrazine-2-carboxylic acid [2-(3-amino-piperidin-1-yl)-phenyl]-amide], the 50% inhibitory concentration (IC50) is < 1 µM in experiment [1] and 1 to 10 µM at KDR kinase.

On to `COc1ccc(-c2cnc(N)c(C(=O)Nc3ccccc3N3CCCC(N)C3)n2)cc1` (stereo not drawn) [Example 375, 3-amino-6-(4-methoxy-phenyl)-pyrazine-2-carboxylic acid [2-(3-amino-piperidin-1-yl)-phenyl]-amide], for which the IC50 in experiment [1] was < 1 µM; at KDR kinase it was 1 to 10 µM.

As to `Cc1ccccc1-c1cnc(N)c(C(=O)Nc2[nH]c(=O)ncc2N2CCCC(N)C2)n1` (stereo not drawn) [Example 400, 3-amino-6-o-tolyl-pyrazine-2-carboxylic acid [5-(3-amino-piperidin-1-yl)-2-oxo-2,3-dihydro-pyrimidin-4-yl]-amide], the concentration for half-maximal inhibition (IC50) is 1 to 10 µM in experiment [1] and < 1 µM against KDR kinase.

For the compound `COc1ccc(F)c(-c2ncc(N)c(C(=O)Nc3cnccc3N3CCC[C@H](N)C3)n2)c1` [Example 549, 5-Amino-2-(2-fluoro-5-methoxy-phenyl)-pyrimidine-4-carboxylic acid (3-amino-3,4,5,6-tetrahydro-2H-[1,4′]bipyridinyl-3′-yl)-amide], the IC50 on Pim1 kinase (read-out: PIM1 IC50) is < 1 µM; at Pim2 kinase (read-out: PIM2 IC50), < 1 µM; on Pim3 kinase (read-out: PIM3 IC50) it was < 1 µM; at KDR kinase, 10 to 25 µM.

Take `CCCOc1ccc(F)c(-c2ncc(N)c(C(=O)Nc3cnccc3N3CCC[C@H](N)C3)n2)c1` [Example 550, 5-Amino-2-(2-fluoro-5-propoxy-phenyl)-pyrimidine-4-carboxylic acid (3-amino-3,4,5,6-tetrahydro-2H-[1,4′]bipyridinyl-3′-yl)-amide]: the IC50 was < 1 µM at Pim1 kinase (read-out: PIM1 IC50), < 1 µM at Pim2 kinase (read-out: PIM2 IC50), < 1 µM at Pim3 kinase (read-out: PIM3 IC50) and 10 to 25 µM at KDR kinase.

`Cc1cnc(O)cc1-c1ccncc1NC(=O)c1nc(-c2c(F)cccc2F)ccc1N` [Example 612, 3-amino-6-(2,6-difluorophenyl)-N-(2′-hydroxy-5′-methyl-4,4′-bipyridin-3-yl)pyridine-2-carboxamide]: the IC50 on Pim1 kinase (read-out: PIM1 IC50) is < 1 µM; at Pim2 kinase (read-out: PIM2 IC50) it was 1 to 10 µM; at Pim3 kinase (read-out: PIM3 IC50), < 1 µM; at KDR kinase, 1 to 10 µM.

In the case of `Nc1ccc(-c2ccccc2F)nc1C(=O)Nc1cnccc1-c1ccnc(O)c1` [Example 614, 3-amino-6-(2-fluorophenyl)-N-(2′-hydroxy-4,4′-bipyridin-3-yl)pyridine-2-carboxamide], the IC50 on Pim1 kinase (read-out: PIM1 IC50) was < 1 µM; at Pim2 kinase (read-out: PIM2 IC50), < 1 µM; on Pim3 kinase (read-out: PIM3 IC50) it was < 1 µM; against KDR kinase it was 1 to 10 µM.

For `Nc1cc(-c2ccncc2NC(=O)c2nc(-c3c(F)cccc3F)ccc2N)ncn1` [Example 629, 3-amino-N-[4-(6-aminopyrimidin-4-yl)pyridin-3-yl]-6-(2,6-difluoro-phenyl)pyridine-2-carboxamide], the half-inhibitory concentration (IC50) at Pim1 kinase (read-out: PIM1 IC50) is < 1 µM; at Pim2 kinase (read-out: PIM2 IC50) it was < 1 µM; on Pim3 kinase (read-out: PIM3 IC50), < 1 µM; on KDR kinase, 10 to 25 µM.

In the case of `Nc1ccc(C2CCCC2)nc1C(=O)Nc1cnccc1N1CCC[C@H](N)C1` [Example 644, 3-Amino-6-cyclopentyl-pyridine-2-carboxylic acid (3-amino-3,4,5,6-tetrahydro-2H-[1,4′]bipyridinyl-3′-yl)-amide], the IC50 at Pim1 kinase (read-out: PIM1 IC50) is < 1 µM; on Pim2 kinase (read-out: PIM2 IC50) it was < 1 µM; at Pim3 kinase (read-out: PIM3 IC50) it was < 1 µM; on KDR kinase it was 10 to 25 µM.

With `Nc1cnc(-c2c(F)cccc2F)nc1C(=O)Nc1cnccc1N1CCC[C@H](O)C1` [Example 648, 5-Amino-2-(2,6-difluoro-phenyl)-pyrimidine-4-carboxylic acid (3-hydroxy-3,4,5,6-tetrahydro-2H-[1,4′]bi-pyridinyl-3′-yl)-amide], the IC50 was < 1 µM at Pim1 kinase (read-out: PIM1 IC50), < 1 µM at Pim2 kinase (read-out: PIM2 IC50), < 1 µM on Pim3 kinase (read-out: PIM3 IC50) and 10 to 25 µM against KDR kinase.

Regarding `Nc1cnc(-c2ccccc2F)nc1C(=O)Nc1cnccc1N1CCC[C@H](O)C1` [Example 649, 5-Amino-2-(2-fluoro-phenyl)-pyrimidine-4-carboxylic acid (3-hydroxy-3,4,5,6-tetrahydro-2H-[1,4′]bipyridinyl-3′-yl)-amide], the IC50 was < 1 µM at Pim1 kinase (read-out: PIM1 IC50), < 1 µM at Pim2 kinase (read-out: PIM2 IC50), < 1 µM on Pim3 kinase (read-out: PIM3 IC50) and 10 to 25 µM against KDR kinase.

Take `Nc1cnc(-c2ccccc2)nc1C(=O)Nc1cnccc1N1CCC[C@H](O)C1` [Example 650, 5-Amino-2-phenyl-pyrimidine-4-carboxylic acid (3-hydroxy-3,4,5,6-tetrahydro-2H-[1,4′]bi-pyridinyl-3′-yl)-amide]: the IC50 was < 1 µM on Pim1 kinase (read-out: PIM1 IC50), < 1 µM on Pim2 kinase (read-out: PIM2 IC50), < 1 µM at Pim3 kinase (read-out: PIM3 IC50) and 10 to 25 µM at KDR kinase.

The record behind these values is US20140249135A1, “PIM KINASE INHIBITORS AND METHODS OF THEIR USE” (NOVARTIS AG, priority 2007, published 2014).
